Legend:
CT26 colorectal cancer = experiment: Combination therapy in CT26 mouse colorectal cancer model; type: in vivo; conditions: for T/C (%) value on day 18 after administration: APG-1387 0.2 mg/kg i.v. once daily, docetaxel 8 mg/kg i.p. once weekly, anti-PD-1 200 μg/mouse i.p. twice weekly
Experimental: Cell inoculation method was used to establish a […] tumor-immunized normal mouse subcutaneous homograft tumor model: tumor cells in logarithmic growth phase were collected, counted, and then resuspended in 1×PBS. The concentration of the cell suspension was adjusted to 2.5-5×10^7/mL. Tumor cells, 5-10×10^6/0.2 mL/mouse, were inoculated subcutaneously in the right back of the immunized normal mouse with a 1 mL syringe ([…]). All animal experimental operations were strictly in accordance with standards for use and management of laboratory animals by Gima Gene Co., Ltd and Suzhou Yasheng Pharmaceutical Co., Ltd. Relevant parameters were calculated with reference to China's NMPA “Guidelines for Non-clinical Research Techniques of Cytotoxic Antitumor Drugs”.
Animal weight and tumor size were measured twice a week during the experiment. Animals were observed daily for status and the occurrence of death. Routine monitoring included the effects of tumor growth and treatment on the normal behaviors of animals, specifically including the activity, feeding and drinking, weight gain or loss, eyes, clothing hair, as well as other abnormalities of the laboratory animals. The deaths and clinical symptoms observed during the experiment were recorded in the original data. The whole process of administration, measurement of mouse weight and tumor volume was carried out in an ultra-clean bench. According to requirements of the experimental program, plasma and tumor tissue were collected, weighed and photographed for record after the end of last administration. Plasma and tumor samples were frozen at −80° C. for later use.
Tumor volume (TV) was calculated as TV=a×b^2/2, wherein a and b represented the length and width of tumor measurement, respectively.
Relative tumor volume (RTV) was calculated as RTV=Vt/V1, wherein V1 was the tumor volume at the time of grouping administration, and Vt was the tumor volume measured on day t after administration.
The evaluation index of anti-tumor activity was relative tumor proliferation rate T/C (%), and was calculated as: relative tumor proliferation rate T/C (%)=(TRTV/CRTV)×100%, wherein TRTV was RTV in treatment group, and CRTV was RTV in vehicle control group.
Tumor remission rate (%) was the number of SD (stable disease), PR (partial regression) and CR (complete regression) in tumor-bearing mice after treatment divided by the total number of mice in that group×100%. CR refers to the complete regression of the tumor, which means the tumor is inaccessible after treatment. PR refers to the partial regression of the tumor, which means tumor volume becomes smaller than before treatment. SD refers to stable tumor progression, which means tumor volume is the same as before treatment. Change of body weight (%)=(measurement of body weight−body weight when grouping)/body weight when grouping×100%.
Efficacy evaluation criteria: according to China's NMPA “Guidelines for Non-clinical Research Techniques of Cytotoxic Antitumor Drugs” (November 2006), T/C (%) value 40% and p<0.05 by statistical analysis were considered as efficacious. If the weight loss of mice exceeded 20%, or the drug-related death percentage exceeded 20%, the drug dose was considered to be severely toxic.
According to Clarke R., Issues in experimental design and endpoint analysis in the study of experimental cytotoxic agents in vivo in breast cancer and other models [J].
A tumor model of CT26 colorectal cancer mouse was established, and the combined anti-tumor effect of APG-1387 with anti-PD-1 antibody and docetaxel was evaluated on this model. The administration regimen was as follows:
APG-1387 monotherapy group: 0.2 mg/kg, intravenous injection, once daily for a total of 17 days;
Docetaxel monotherapy group: 8 mg/kg, intraperitoneal injection, once weekly for a total of 17 days;
Anti-PD-1 antibody monotherapy group: 200 μg/mouse, intraperitoneal injection, twice weekly for a total of 2.5 weeks (i.e., 17 days); […]

[1] = test system: murine A20 lymphoma cells; experiment: Subcutaneous xenograft model of murine A20 lymphoma; type: in vivo, female BALB/c mice; conditions: A20 s.c.
Experimental: • (1) APG-1387: provided by Jiangsu Ascentage Pharmaceutical Development Co., Ltd. The batch number is R12JA076140-A2 and PAPG-1387-DP-201305A. Preserved at 4° C., away from the light and sealed. APG-1387 was administered intravenously (i.v.) or intraperitoneally (i.p.) or at a dosage of 10 mL/kg. APG-1387 was dissolved in 5% castor oil/10% PEG400/85% normal saline. • (2) Anti-PD-1 antibody: purchased from BioXcell. The article number is BE0146 and BE0273. Preserved at 4° C. and sealed. The anti-PD-1 antibody was administered intraperitoneally at a concentration of 100 μg per mice or 200 μg per mice. • (3) Isotype control (anti-IgG): purchased from BioXcell, the product number is BE0089. Preserved at 4° C. and sealed. […]
The mice were injected subcutaneously with 0.5-10×10^6 cells or in the ovary with 6×10^6 cells in situ to build the tumor xenograft model. […] For the orthotopic model, tumor growth was measured by examining in vivo fluorescence images 10 days after inoculation. […] Body weight and tumor size were measured twice per week during the experiment. […]
The calculation of tumor related parameters is the same as set forth in Example 1. Using the fluorescence imaging technique, the strength of the fluorescent signal can represent the growth and metastasis of tumors in vivo. […]

CC(=O)O[C@@]12CO[C@@H]1C[C@H](O)[C@@]1(C)C(=O)[C@H](O)C3=C(C)[C@@H](OC(=O)[C@H](O)[C@@H](NC(=O)OC(C)(C)C)c4ccccc4)C[C@@](O)([C@@H](OC(=O)c4ccccc4)[C@H]21)C3(C)C [Docetaxel, docetaxel]
T/C (%) value on day 18 after administration (CT26 colorectal cancer): 66%
T/C (%) value on day 18 after administration (CT26 colorectal cancer; listed as docetaxel): 66%
Tumor remission rate on day 18 after administration (%) (CT26 colorectal cancer; day 18): 25%
Tumor remission rate on day 18 after administration: animals with SD/PR/CR per animals in group (CT26 colorectal cancer; day 18): 1/4 SD
Tumor remission rate on day 18 after administration: animals with SD/PR/CR per animals in group (CT26 colorectal cancer; day 18, listed as docetaxel): ¼
anti-tumor effect on the 24th day after administration [1]: not significant
